Source: US5500429A, “Calcium uptake inhibitors” (Merrell Pharmaceuticals Inc., priority 1993, dated 1996)
Where two headings read alike, the source gives them in different places.

Columns and labels:
[1] = system: Sprague-Dawley rats, Arthus reaction; assay: Arthus Reaction in Rat Skin; assay type: in vivo
Protocol: Anesthetized male Sprague-Dawley rats (Charles River) weighing 200-250 grams received 100 mg/Kg i.v. sterile bovine serum albumin (BSA) solution (5 mg/mL). immediately after injection, the animals received an intradermal injection of 100 ug of rabbit anit-BSA in saline. This produces an immune complex mediated inflammation (Arthus reaction) where immune complexes fix complement releasing factors that attract neutrophils. The neutrophils then are activated causing local tissue damage as manifested in a hemorrhagic spot. The extent of the reaction is reflected in the size of the spot as measured by image analysis techniques.

[2] = system: Sprague Dawley rats, carrageenin-induced paw edema; assay: Carrageenin Induced Rat Paw Edema; assay type: in vivo; conditions: i.p, one hour prior to carrageenin; read 3 hours after
Protocol: Charles River male Sprague Dawley rats weighing 90 to 100 grams were used. Inflammation of the left hind paw was induced by a 1% carrageenin solution (0.05 cc), injected into the plantar surface of the paw. The contralateral paw was injected with an equal volume of saline. Drugs were administered orally or i.p. (1 cc/100 grams) one hour prior to paw injection. Three hours following the carrageenin injection the difference in volume of the control and inflamed paw was measured. Each paw was immersed in a well of mercury and the volume of mercury displaced was recorded. Paws were uniformly dipped into the mercury up to the beginning of the hairline. A venous pressure transducer, coupled to an oscillographic recorder, was employed to measure the small volumes of mercury displaced. Each group measurement consists of the average of four rats, each with three separate measurements.

[3] = system: Lewis rats, adjuvant-induced arthritis; assay: Lewis Rat Adjuvant-Induced Arthritis Model; assay type: in vivo
Protocol: Female inbred Lewis rats (Charles River) weighing 150-200 grams were injected intradermally in the tail with either 0.1 mL of Mycobacterium butyricum (Difco) in mineral oil (5 mg.mL) or with mineral oil alone. Starting on the day of innoculation and for 32 days, paw edema was determined for right and left hind limbs using the mercury displacemnt method. From day 1 some animals were treated with 30 mg/Kg p.o. MDL 29,355 once daily.

Rat PMNL = assay: Superoxide Anion (SOA) Production by rat PMNL; assay type: cell-based; conditions: for inhibition of superoxide anion production: PMA and OZ induced; for inhibition at 1 µM / inhibition at 3 µM / inhibition at 10 µM / inhibition at 30 µM / inhibition at 100 µM / inhibition at 300 µM: Rattus norvegicus, PMNL
Protocol: Rat PMNL were obtained from exudates resulting from peritoneal injection of 6 mL of 8% sodium caseinate. Eighteen hours after injection rats were killed by carbon dioxide inhalation and the peritoneal cavity lavaged with Hank's balanced salt solution (HBSS). After concentration of the PMNL by centrifugation, contaminating erythrocytes were removed by hypotonic lysis. The PMNL were then washed twice by centrifugation (400×g for 10 minutes) and resuspended in HBSS. Cell viability was greater than 90% by Trypan Blue exclusion and greater than 90% of the cells were PMNL by Wright-Giemsa stain.
Aliquots (50 μl) of a rat PMNL suspension (2×10^7 cells/mL in HBSS) were incubated with 50 μl of HBSS containing vehicle (0.3% DMSO) or compound for 30 minutes at 37° C. as above. One hundred microliters of buffer containing 5.98 mg/mL of cytochrome C (Sigma Type III) and 0.1 mg/mL catalase, plus the compounds where appropriate, were then added to each sample. A blank for spectrophotometric measurement, containing unstimulated cells in the presence of cytochrome C, catalase and SOD, was also prepared. To activate the PMNL, 75 μl of PMA or OZ were added to achieve the final concentration of cell activator (plus vehicle or inhibitor as described above for MPO release) and the cells further incubated at 37° C. for 60 minutes. The activation was terminated by centrifugation at 600×g for 5 minutes at 4° C. Aliquots (200 μl) of supernatant were then transferred to a second, flat-well microtiter plate and measured spectrophotometrically at 550 nm. […]

[4] = PMA, read-out: PMA/SOA inhibition
[5] = opsonized zymosan, read-out: OZ/SOA inhibition

Compound: O=C(C=Cc1ccncc1)c1ccccc1 [MDL 29,355, 1-phenyl-3-(4-pyridinyl)-2-propene-1-one]
- hemorrhagic spot size reduction ([1]; i.p. 100 mg/Kg, 30 minutes before Arthus reaction): 55.0%±16.8%
- hemorrhagic spot size reduction ([1]; intradermal 100ug with the antibody): 41.7% ±12.5%
- % Inhibition of carrageenin-induced paw edema [2]: 51.4 ± 8.5%
- paw swelling reduction, day 20 ([3]; 30 mg/Kg p.o. once daily from day 1, day 20): 36.4% ±16.6%
- paw swelling inhibited, day 32 ([3]; 30 mg/Kg p.o. once daily from day 1, day 32, not significantly different from untreated controls): 30.9%±22.4%
- animals never displaying adjuvant arthritis ([3]; 30 mg/Kg p.o. once daily, all control animals displayed arthritis): one of the 3 treated animals never displayed adjuvant arthritis
- inhibition of superoxide anion production (Rat PMNL): inhibited in a dose dependent fashion
- inhibition at 1 µM (Rat PMNL; [4]): -29.5%
- inhibition at 3 µM (Rat PMNL; [4]): -30.2%
- inhibition at 10 µM (Rat PMNL; [4]): -20.7%
- inhibition at 30 µM (Rat PMNL; [4]): -12.3%
- inhibition at 100 µM (Rat PMNL; [4]): 21.1%
- inhibition at 300 µM (Rat PMNL; [4]): 104%
- inhibition at 1 µM (Rat PMNL; [5]): -10.7%
- inhibition at 3 µM (Rat PMNL; [5]): -12.6%
- inhibition at 10 µM (Rat PMNL; [5]): 2.5%
- inhibition at 30 µM (Rat PMNL; [5]): 27.5%
- inhibition at 100 µM (Rat PMNL; [5]): 67.6%
- inhibition at 300 µM (Rat PMNL; [5]): 102%

Compound: CN(C)c1ccc(C(=O)C=Cc2ccncc2)cc1 [MDL 101,240, 1-(4-dimethylaminophenyl)-3-(4-pyridinyl)-2-propene-1-one]
- inhibition of superoxide anion production (Rat PMNL): inhibited in a dose dependent fashion
- inhibition at 1 µM (Rat PMNL; [4]): -7.2%
- inhibition at 3 µM (Rat PMNL; [4]): 4.7%
- inhibition at 10 µM (Rat PMNL; [4]): 5.9%
- inhibition at 30 µM (Rat PMNL; [4]): 34.5%
- inhibition at 100 µM (Rat PMNL; [4]): 81.5%
- inhibition at 1 µM (Rat PMNL; [5]): -7.8%
- inhibition at 3 µM (Rat PMNL; [5]): 2.5%
- inhibition at 10 µM (Rat PMNL; [5]): 21.3%
- inhibition at 30 µM (Rat PMNL; [5]): 66.3%
- inhibition at 100 µM (Rat PMNL; [5]): 85%
